Measured values published in PubChem BioAssay AID2060890 (Molecular Pharmacology Branch, DTP, NCI, 2025).

Tested on: LG0703-F948-PDC complex spheroid viability
Test: Anticancer human tumor LG0703-F948-PDC patient-derived lung adenocarcinoma cell line growth inhibition [RAS]
Conditions: for IC50: curve of first compound; for viability, T/C: stronger effect = lower value
Outline: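 Agents were tested in combination matrices in half-log decrements from a top concentration at or near clinical Cmax (10 microM if undetermined). Targets were multi-cell spheroids of tumour lines plus HUVEC and MSC stromal cells.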

[1] = second compound 0.00316 µM, first compound 0.000949 µM
[2] = second compound 0.00316 µM, first compound 0.003 µM
[3] = second compound 0.00316 µM, first compound 0.00949 µM
[4] = second compound 0.00316 µM, first compound 0.03 µM
[5] = second compound 0.00316 µM, first compound 0.0949 µM
[6] = second compound 0.00316 µM, first compound 0.3 µM
[7] = second compound 0.01 µM, first compound 0.000949 µM
[8] = second compound 0.01 µM, first compound 0.003 µM
[9] = second compound 0.01 µM, first compound 0.00949 µM
[10] = second compound 0.01 µM, first compound 0.03 µM
[11] = second compound 0.01 µM, first compound 0.0949 µM
[12] = second compound 0.01 µM, first compound 0.3 µM
[13] = second compound 0.0316 µM, first compound 0.000949 µM
[14] = second compound 0.0316 µM, first compound 0.003 µM
[15] = second compound 0.0316 µM, first compound 0.00949 µM
[16] = second compound 0.0316 µM, first compound 0.03 µM
[17] = second compound 0.0316 µM, first compound 0.0949 µM
[18] = second compound 0.0316 µM, first compound 0.3 µM
[19] = second compound 0.1 µM, first compound 0.000949 µM
[20] = second compound 0.1 µM, first compound 0.003 µM
[21] = second compound 0.1 µM, first compound 0.00949 µM
[22] = second compound 0.1 µM, first compound 0.03 µM
[23] = second compound 0.1 µM, first compound 0.0949 µM
[24] = second compound 0.1 µM, first compound 0.3 µM
[25] = second compound 0.316 µM, first compound 0.000949 µM
[26] = second compound 0.316 µM, first compound 0.003 µM
[27] = second compound 0.316 µM, first compound 0.00949 µM
[28] = second compound 0.316 µM, first compound 0.03 µM
[29] = second compound 0.316 µM, first compound 0.0949 µM
[30] = second compound 0.316 µM, first compound 0.3 µM
[31] = second compound 1 µM, first compound 0.000949 µM
[32] = second compound 1 µM, first compound 0.003 µM
[33] = second compound 1 µM, first compound 0.00949 µM
[34] = second compound 1 µM, first compound 0.03 µM
[35] = second compound 1 µM, first compound 0.0949 µM
[36] = second compound 1 µM, first compound 0.3 µM
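Note: spheroids exposed to agents for 7 days.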
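Throughout, for viability, T/C: 100% = DMSO vehicle wells.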

SMILES: CC1(C)CCC(Nc2ncc(C(F)(F)F)c(-c3c[nH]c4c(P(C)(C)=O)c(C#N)ccc34)n2)CN1 (centres undefined) + C=CC(=O)N1CCN(c2nc(OCC3CCCN3C)nc3c(F)c(-c4nc(N)cc(C)c4C(F)(F)F)c(Cl)cc23)C(C)C1
- IC50 (second compound 0.00316 µM): > 300 nM
- IC50 (second compound 0.01 µM): > 300 nM
- IC50 (second compound 0.0316 µM): > 300 nM
- IC50 (second compound 0.1 µM): > 300 nM
- IC50 (second compound 0.316 µM): > 300 nM
- IC50 (second compound 1 µM): > 300 nM
- viability, T/C [1]: 84.1%
- viability, T/C [2]: 76.8%
- viability, T/C [3]: 63.5%
- viability, T/C [4]: 62.8%
- viability, T/C [5]: 57%
- viability, T/C [6]: 57.3%
- viability, T/C [7]: 88.5%
- viability, T/C [8]: 78.8%
- viability, T/C [9]: 67%
- viability, T/C [10]: 52.9%
- viability, T/C [11]: 58.7%
- viability, T/C [12]: 62%
- viability, T/C [13]: 94%
- viability, T/C [14]: 71.4%
- viability, T/C [15]: 68.8%
- viability, T/C [16]: 53.2%
- viability, T/C [17]: 54.7%
- viability, T/C [18]: 62.1%
- viability, T/C [19]: 82.3%
- viability, T/C [20]: 77.1%
- viability, T/C [21]: 55.9%
- viability, T/C [22]: 52.9%
- viability, T/C [23]: 58.4%
- viability, T/C [24]: 65.3%
- viability, T/C [25]: 98.4%
- viability, T/C [26]: 78.5%
- viability, T/C [27]: 62.2%
- viability, T/C [28]: 62%
- viability, T/C [29]: 58.8%
- viability, T/C [30]: 67.3%
- viability, T/C [31]: 84.8%
- viability, T/C [32]: 77.8%
- viability, T/C [33]: 64.5%
- viability, T/C [34]: 57.4%
- viability, T/C [35]: 66.1%
- viability, T/C [36]: 59.9%

SMILES: CCc1c2c(nc3ccc(O)cc13)-c1cc3c(c(=O)n1C2)COC(=O)[C@]3(O)CC + C=CC(=O)N1CCN(c2nc(OCC3CCCN3C)nc3c(F)c(-c4nc(N)cc(C)c4C(F)(F)F)c(Cl)cc23)C(C)C1
- IC50 (second compound 0.00316 µM): 41.8 nM
- IC50 (second compound 0.01 µM): 51.3 nM
- IC50 (second compound 0.0316 µM): 37.6 nM
- IC50 (second compound 0.1 µM): 30.5 nM
- IC50 (second compound 0.316 µM): 44.4 nM
- IC50 (second compound 1 µM): 50.8 nM
- viability, T/C [1]: 102%
- viability, T/C [2]: 99.9%
- viability, T/C [3]: 77.8%
- viability, T/C [4]: 54.5%
- viability, T/C [5]: 38.3%
- viability, T/C [6]: 22.9%
- viability, T/C [7]: 105%
- viability, T/C [8]: 87.5%
- viability, T/C [9]: 80.7%
- viability, T/C [10]: 61.3%
- viability, T/C [11]: 36.4%
- viability, T/C [12]: 20.7%
- viability, T/C [13]: 102%
- viability, T/C [14]: 106%
- viability, T/C [15]: 92.1%
- viability, T/C [16]: 53%
- viability, T/C [17]: 34%
- viability, T/C [18]: 21%
- viability, T/C [19]: 97.8%
- viability, T/C [20]: 103%
- viability, T/C [21]: 63.4%
- viability, T/C [22]: 53.1%
- viability, T/C [23]: 35.8%
- viability, T/C [24]: 21.2%
- viability, T/C [25]: 104%
- viability, T/C [26]: 103%
- viability, T/C [27]: 83.6%
- viability, T/C [28]: 58.8%
- viability, T/C [29]: 34.4%
- viability, T/C [30]: 24.3%
- viability, T/C [31]: 106%
- viability, T/C [32]: 98.8%
- viability, T/C [33]: 91%
- viability, T/C [34]: 57.3%
- viability, T/C [35]: 39.8%
- viability, T/C [36]: 20.1%
